# Patent US20110212100A1, “METHODS FOR MODULATING DEVELOPMENT AND EXPANSION OF IL-17 EXPRESSING CELLS” (priority 2007, published 2011)
# Where “and” joins values, the source holds several entries; their conditions need not be identical. Equal entries are not always repeated. Where two headings read alike, the source gives them in different places.
# Key:
# [1] = cited from earlier work
# [2] = system: Asns, Gpt2, eIF4Ebp1 mRNA; test: Quantitative real-time PCR of AAR-associated genes in T cells; assay type: cell-based, mouse; details: 10 nM HF, within 4 hours of T cell activation
# Procedure: FIG. 12C is a graph depicting the results of quantitative real-time PCR performed on cDNA generated from resting naïve T cells (TN) or T cells activated for 4 hours in the presence of 10 nM MAZ1310 or 10 nM HF. Asns, Gpt2 or eIF4Ebp1 mRNA expression was normalized to Hprt levels and data are presented as mean values±SD in duplicate samples.
# Quantitative real-time PCR: T cells were activated as described above, collected at the indicated times and pellets were flash-frozen in liquid nitrogen. Total RNA was obtained by RNeasy (Quiagen, Valencia, Calif.) column purification per manufacturers instructions. RORγt expression was determined after reverse transcription using the message sensor kit (Ambion, Austin, Tex.) per manufacturers instructions and taqman primers and probe as described elsewhere (I. Ivanov, et al., Cell 126, 1121, 2006). Sybrgreen quantitative real-time PCR was performed on T cell RNA samples following reverse transcription via SuperScript II first-strand cDNA synthesis kit (Invitrogen, Carlsbad, Calif.). All PCR data was collected on an iCycler thermal cycler (Biorad, Hercules, Calif.). Primer sequences used for detecting stress response genes are listed below.
smiles,measurement,setting,value
"O=C(CC1NCCCC1O)Cn1cnc2cc(Br)c(Cl)cc2c1=O (racemic) [HF, 7-bromo-6-chloro-3-[3-(3-hydroxy-2-piperidinyl)-2-oxopropyl]-4(3H)-quinazolinone]",peak plasma concentration,[1]; oral 3.5 mg/day,3 ng/ml and ~8 nM
same,dose at which dose limiting toxicity occurred,[1]; oral (de Jonge et al.),3.5 mg/day
same,"dose limiting toxicity, in words",[1]; oral,nausea and vomiting
same,recommended tolerated dose for chronic treatment,[1]; oral,0.5 mg/day
same,"dose limiting toxicity, in words","[1]; oral, listed as halofuginone",nausea
same,"Asns, Gpt2, eIF4Ebp1 mRNA (qPCR), in words",[2],induced
